Measured values reported in ChEMBL document CHEMBL4507289, “Data for DCP probe GSM1” (2021).

Key:
[1] = tested on: Tyrosine-protein kinase ABL1 (Homo sapiens), P00519 [F317I]; conditions: Compound concentration 1000.0 nM
[2] = molecular target: BMP-2-inducible protein kinase (Homo sapiens) (UniProt Q9NSY1); conditions: Compound concentration 1000.0 nM
[3] = molecular target: Tyrosine-protein kinase Blk (Homo sapiens) (UniProt P51451); conditions: Compound concentration 1000.0 nM
[4] = molecular target: Bone morphogenetic protein receptor type-1B (Homo sapiens) (UniProt O00238); conditions: Compound concentration 1000.0 nM
[5] = molecular target: Serine/threonine-protein kinase B-raf (Homo sapiens) (UniProt P15056); conditions: Compound concentration 1000.0 nM
[6] = molecular target: Serine/threonine-protein kinase BRSK1 (Homo sapiens) (UniProt Q8TDC3); conditions: Compound concentration 1000.0 nM
[7] = molecular target: Calcium/calmodulin-dependent protein kinase type IV (Homo sapiens) (UniProt Q16566); conditions: Compound concentration 1000.0 nM
[8] = molecular target: Calcium/calmodulin-dependent protein kinase kinase 1 (Homo sapiens) (UniProt Q8N5S9); conditions: Compound concentration 1000.0 nM
[9] = molecular target: Cyclin-dependent kinase 4 (Homo sapiens) (UniProt P11802); conditions: Compound concentration 1000.0 nM
[10] = molecular target: Tyrosine-protein kinase CSK (Homo sapiens) (UniProt P41240); conditions: Compound concentration 1000.0 nM
[11] = molecular target: Death-associated protein kinase 2 (Homo sapiens) (UniProt Q9UIK4); conditions: Compound concentration 1000.0 nM
[12] = molecular target: Mitogen-activated protein kinase kinase kinase 12 (Homo sapiens) (UniProt Q12852); conditions: Compound concentration 1000.0 nM
[13] = molecular target: Epidermal growth factor receptor (Homo sapiens) (UniProt P00533); conditions: Compound concentration 1000.0 nM
[14] = molecular target: Ephrin type-A receptor 5 (Homo sapiens) (UniProt P54756); conditions: Compound concentration 1000.0 nM
[15] = molecular target: Ephrin type-B receptor 3 (Homo sapiens) (UniProt P54753); conditions: Compound concentration 1000.0 nM
[16] = molecular target: Ephrin type-B receptor 4 (Homo sapiens) (UniProt P54760); conditions: Compound concentration 1000.0 nM
[17] = molecular target: Fibroblast growth factor receptor 2 (Homo sapiens) (UniProt P21802); conditions: Compound concentration 1000.0 nM
[18] = molecular target: Fibroblast growth factor receptor 4 (Homo sapiens) (UniProt P22455); conditions: Compound concentration 1000.0 nM
[19] = molecular target: Tyrosine-protein kinase Fgr (Homo sapiens) (UniProt P09769); conditions: Compound concentration 1000.0 nM
[20] = molecular target: Receptor-type tyrosine-protein kinase FLT3 (Homo sapiens) (UniProt P36888); conditions: Compound concentration 1000.0 nM
[21] = molecular target: G protein-coupled receptor kinase 4 (Homo sapiens) (UniProt P32298); conditions: Compound concentration 1000.0 nM
[22] = molecular target: Insulin receptor-related protein (Homo sapiens) (UniProt P14616); conditions: Compound concentration 1000.0 nM
[23] = molecular target: Interleukin-1 receptor-associated kinase 3 (Homo sapiens) (UniProt Q9Y616); conditions: Compound concentration 1000.0 nM
[24] = molecular target: Tyrosine-protein kinase JAK2 (Homo sapiens) (UniProt O60674); conditions: Compound concentration 1000.0 nM
[25] = molecular target: Leukocyte tyrosine kinase receptor (Homo sapiens) (UniProt P29376); conditions: Compound concentration 1000.0 nM
[26] = molecular target: Dual specificity mitogen-activated protein kinase kinase 1 (Homo sapiens) (UniProt Q02750); conditions: Compound concentration 1000.0 nM
[27] = tested on: Hepatocyte growth factor receptor (Homo sapiens), P08581 [M1250T]; conditions: Compound concentration 1000.0 nM
[28] = molecular target: Serine/threonine-protein kinase MRCK alpha (Homo sapiens) (UniProt Q5VT25); conditions: Compound concentration 1000.0 nM
[29] = molecular target: Serine/threonine-protein kinase OSR1 (Homo sapiens) (UniProt O95747); conditions: Compound concentration 1000.0 nM
[30] = molecular target: Platelet-derived growth factor receptor alpha (Homo sapiens) (UniProt P16234); conditions: Compound concentration 1000.0 nM
[31] = tested on: Phosphatidylinositol 4,5-bisphosphate 3-kinase catalytic subunit alpha isoform (Homo sapiens), P42336 [C420R]; conditions: Compound concentration 1000.0 nM
[32] = tested on: Phosphatidylinositol 4,5-bisphosphate 3-kinase catalytic subunit alpha isoform (Homo sapiens), P42336 [E545K]; conditions: Compound concentration 1000.0 nM
[33] = molecular target: Phosphatidylinositol 4-phosphate 5-kinase type-1 gamma (Homo sapiens) (UniProt O60331); conditions: Compound concentration 1000.0 nM
[34] = molecular target: Rho-associated protein kinase 1 (Homo sapiens) (UniProt Q13464); conditions: Compound concentration 1000.0 nM
[35] = molecular target: Ribosomal protein S6 kinase alpha-4 (Homo sapiens) (UniProt O75676); conditions: Compound concentration 1000.0 nM
[36] = molecular target: Ribosomal protein S6 kinase beta-1 (Homo sapiens) (UniProt P23443); conditions: Compound concentration 1000.0 nM
[37] = molecular target: NUAK family SNF1-like kinase 2 (Homo sapiens) (UniProt Q9H093); conditions: Compound concentration 1000.0 nM
[38] = molecular target: Proto-oncogene tyrosine-protein kinase Src (Homo sapiens) (UniProt P12931); conditions: Compound concentration 1000.0 nM
[39] = molecular target: Tyrosine-protein kinase SYK (Homo sapiens) (UniProt P43405); conditions: Compound concentration 1000.0 nM
[40] = molecular target: NT-3 growth factor receptor (Homo sapiens) (UniProt Q16288); conditions: Compound concentration 1000.0 nM
[41] = molecular target: Non-receptor tyrosine-protein kinase TYK2 (Homo sapiens) (UniProt P29597); conditions: Compound concentration 1000.0 nM
[42] = molecular target: Serine/threonine-protein kinase 32C (Homo sapiens) (UniProt Q86UX6); conditions: Compound concentration 1000.0 nM
[43] = molecular target: D(1A) dopamine receptor (Homo sapiens) (UniProt P21728); conditions: Compound concentration 10.0 uM
[44] = molecular target: GABA-A receptor; anion channel (Rattus norvegicus) (UniProt O09028+P15431+P18506+P18508+P19969+P20236+P23574+P23576+P28471+P28473+P30191+P62813+P63079+P63138+Q91ZM7+Q9ES14); conditions: Compound concentration 10.0 uM

Sequence of Serine/threonine-protein kinase OSR1 (Homo sapiens) (O95747 2-527 limits assumed): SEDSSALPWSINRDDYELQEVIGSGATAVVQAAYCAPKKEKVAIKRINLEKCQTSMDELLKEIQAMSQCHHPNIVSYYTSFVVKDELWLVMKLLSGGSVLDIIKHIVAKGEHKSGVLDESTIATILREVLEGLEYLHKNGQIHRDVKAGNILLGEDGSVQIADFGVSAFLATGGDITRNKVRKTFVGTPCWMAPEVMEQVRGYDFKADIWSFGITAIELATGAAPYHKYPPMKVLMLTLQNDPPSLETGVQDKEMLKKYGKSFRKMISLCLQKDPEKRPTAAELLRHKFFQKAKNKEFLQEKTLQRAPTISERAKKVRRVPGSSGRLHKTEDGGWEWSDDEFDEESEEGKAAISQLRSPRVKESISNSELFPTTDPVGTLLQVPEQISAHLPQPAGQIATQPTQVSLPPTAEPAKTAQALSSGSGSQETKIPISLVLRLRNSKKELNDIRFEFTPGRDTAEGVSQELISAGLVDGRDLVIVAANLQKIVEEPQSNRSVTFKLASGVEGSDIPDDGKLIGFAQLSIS
Sequence of Non-receptor tyrosine-protein kinase TYK2 (Homo sapiens) (P29597 whole entry): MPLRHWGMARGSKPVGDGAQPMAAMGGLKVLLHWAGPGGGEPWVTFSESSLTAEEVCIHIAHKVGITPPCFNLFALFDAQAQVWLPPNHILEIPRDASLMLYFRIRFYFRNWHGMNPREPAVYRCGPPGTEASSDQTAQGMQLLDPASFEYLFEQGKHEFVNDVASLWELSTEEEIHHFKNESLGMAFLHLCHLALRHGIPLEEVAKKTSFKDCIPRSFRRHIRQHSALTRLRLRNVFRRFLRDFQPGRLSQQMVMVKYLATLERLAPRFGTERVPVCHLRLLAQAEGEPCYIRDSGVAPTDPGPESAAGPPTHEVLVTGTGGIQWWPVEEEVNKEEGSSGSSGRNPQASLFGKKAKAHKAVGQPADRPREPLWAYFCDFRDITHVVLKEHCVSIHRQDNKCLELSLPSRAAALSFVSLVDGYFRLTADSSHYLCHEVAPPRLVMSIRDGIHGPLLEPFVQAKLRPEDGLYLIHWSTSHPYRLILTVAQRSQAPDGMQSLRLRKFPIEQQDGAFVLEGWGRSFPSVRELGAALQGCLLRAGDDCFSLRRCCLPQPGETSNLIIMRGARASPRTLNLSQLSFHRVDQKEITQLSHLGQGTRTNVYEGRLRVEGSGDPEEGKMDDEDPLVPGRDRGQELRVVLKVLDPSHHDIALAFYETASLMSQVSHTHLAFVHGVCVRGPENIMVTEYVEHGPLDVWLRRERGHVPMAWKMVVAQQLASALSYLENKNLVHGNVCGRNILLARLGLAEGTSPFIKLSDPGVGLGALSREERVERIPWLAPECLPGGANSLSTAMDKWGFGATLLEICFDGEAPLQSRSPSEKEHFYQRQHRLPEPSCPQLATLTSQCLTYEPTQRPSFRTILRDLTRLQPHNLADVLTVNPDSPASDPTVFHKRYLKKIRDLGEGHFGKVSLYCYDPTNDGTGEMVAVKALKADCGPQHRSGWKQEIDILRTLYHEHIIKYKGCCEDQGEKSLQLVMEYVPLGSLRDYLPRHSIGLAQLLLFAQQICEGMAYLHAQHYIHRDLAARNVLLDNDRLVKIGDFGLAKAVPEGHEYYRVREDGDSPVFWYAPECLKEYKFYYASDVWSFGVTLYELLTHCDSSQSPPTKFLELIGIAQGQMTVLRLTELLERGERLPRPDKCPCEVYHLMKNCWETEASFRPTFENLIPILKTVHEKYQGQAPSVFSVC
Sequence of Interleukin-1 receptor-associated kinase 3 (Homo sapiens) (Q9Y616 whole entry): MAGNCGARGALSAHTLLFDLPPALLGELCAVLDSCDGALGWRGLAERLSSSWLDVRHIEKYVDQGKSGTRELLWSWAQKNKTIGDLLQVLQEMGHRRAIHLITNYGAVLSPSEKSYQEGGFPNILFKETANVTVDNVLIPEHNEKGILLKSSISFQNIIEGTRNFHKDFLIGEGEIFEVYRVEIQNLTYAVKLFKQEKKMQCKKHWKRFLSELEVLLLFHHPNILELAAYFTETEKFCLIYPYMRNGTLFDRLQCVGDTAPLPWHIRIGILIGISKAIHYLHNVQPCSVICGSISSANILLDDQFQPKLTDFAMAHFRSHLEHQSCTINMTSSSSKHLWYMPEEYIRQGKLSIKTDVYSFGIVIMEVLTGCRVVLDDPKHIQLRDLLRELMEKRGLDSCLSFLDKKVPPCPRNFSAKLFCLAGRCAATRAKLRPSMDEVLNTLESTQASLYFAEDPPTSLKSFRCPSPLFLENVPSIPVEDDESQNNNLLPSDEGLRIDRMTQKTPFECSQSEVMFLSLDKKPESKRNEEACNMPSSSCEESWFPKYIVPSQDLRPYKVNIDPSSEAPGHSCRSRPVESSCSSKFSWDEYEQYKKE
Sequence of Fibroblast growth factor receptor 4 (Homo sapiens) (P22455 22-802 limits assumed): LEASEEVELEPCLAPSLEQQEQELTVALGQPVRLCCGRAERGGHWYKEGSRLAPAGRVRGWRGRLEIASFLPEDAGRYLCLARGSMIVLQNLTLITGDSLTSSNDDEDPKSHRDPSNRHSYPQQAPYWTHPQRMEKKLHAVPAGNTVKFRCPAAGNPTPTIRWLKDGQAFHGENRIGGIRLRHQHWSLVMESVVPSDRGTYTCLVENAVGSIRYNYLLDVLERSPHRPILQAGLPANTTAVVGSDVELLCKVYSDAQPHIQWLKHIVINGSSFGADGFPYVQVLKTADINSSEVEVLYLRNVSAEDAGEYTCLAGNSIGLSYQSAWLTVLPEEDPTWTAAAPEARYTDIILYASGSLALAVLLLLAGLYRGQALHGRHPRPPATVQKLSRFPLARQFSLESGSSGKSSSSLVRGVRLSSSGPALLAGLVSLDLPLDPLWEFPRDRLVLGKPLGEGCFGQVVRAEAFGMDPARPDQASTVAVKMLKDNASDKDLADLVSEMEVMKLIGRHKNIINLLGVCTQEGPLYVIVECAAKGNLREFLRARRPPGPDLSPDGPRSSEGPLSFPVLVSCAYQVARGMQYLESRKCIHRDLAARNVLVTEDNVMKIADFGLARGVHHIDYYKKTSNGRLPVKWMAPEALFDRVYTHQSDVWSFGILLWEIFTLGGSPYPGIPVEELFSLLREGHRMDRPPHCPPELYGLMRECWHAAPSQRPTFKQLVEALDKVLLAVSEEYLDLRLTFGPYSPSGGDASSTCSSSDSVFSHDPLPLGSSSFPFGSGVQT
Sequence of Cyclin-dependent kinase 4 (Homo sapiens) (P11802 whole entry): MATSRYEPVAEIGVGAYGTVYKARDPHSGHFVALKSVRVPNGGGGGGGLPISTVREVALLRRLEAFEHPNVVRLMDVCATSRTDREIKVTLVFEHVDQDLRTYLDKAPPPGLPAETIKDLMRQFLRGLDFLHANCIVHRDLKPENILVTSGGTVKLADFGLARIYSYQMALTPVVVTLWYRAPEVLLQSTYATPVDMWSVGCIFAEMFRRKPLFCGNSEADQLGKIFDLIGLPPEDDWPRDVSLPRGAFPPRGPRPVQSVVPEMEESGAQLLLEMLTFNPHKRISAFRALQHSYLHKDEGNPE
Sequence of Dual specificity mitogen-activated protein kinase kinase 1 (Homo sapiens) (Q02750 whole entry): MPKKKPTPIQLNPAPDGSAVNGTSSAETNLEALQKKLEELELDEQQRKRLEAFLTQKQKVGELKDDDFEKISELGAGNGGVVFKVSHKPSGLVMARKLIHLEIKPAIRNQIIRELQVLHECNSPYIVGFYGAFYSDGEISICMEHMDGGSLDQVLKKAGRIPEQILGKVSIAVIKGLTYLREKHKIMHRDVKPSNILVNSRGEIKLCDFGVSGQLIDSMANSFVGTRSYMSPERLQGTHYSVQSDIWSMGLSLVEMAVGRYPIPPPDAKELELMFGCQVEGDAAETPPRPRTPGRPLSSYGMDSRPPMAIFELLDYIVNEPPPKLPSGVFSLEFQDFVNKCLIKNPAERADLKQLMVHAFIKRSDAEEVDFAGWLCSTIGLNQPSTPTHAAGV
Sequence of Tyrosine-protein kinase Blk (Homo sapiens) (P51451 2-505 limits assumed): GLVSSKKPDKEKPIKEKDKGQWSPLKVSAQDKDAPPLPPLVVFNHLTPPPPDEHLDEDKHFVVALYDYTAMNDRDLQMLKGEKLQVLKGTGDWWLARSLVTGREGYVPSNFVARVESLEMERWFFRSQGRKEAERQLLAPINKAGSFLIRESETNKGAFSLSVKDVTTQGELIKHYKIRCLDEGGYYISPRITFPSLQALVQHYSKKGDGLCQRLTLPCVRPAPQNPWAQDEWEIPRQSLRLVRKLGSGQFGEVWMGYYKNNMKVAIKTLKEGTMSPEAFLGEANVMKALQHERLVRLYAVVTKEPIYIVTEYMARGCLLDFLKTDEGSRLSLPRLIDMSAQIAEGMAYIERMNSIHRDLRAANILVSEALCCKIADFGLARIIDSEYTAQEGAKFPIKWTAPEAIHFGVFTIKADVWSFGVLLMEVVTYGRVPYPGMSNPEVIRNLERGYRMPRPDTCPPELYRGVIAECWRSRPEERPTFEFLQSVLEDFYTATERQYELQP
Sequence of Ribosomal protein S6 kinase beta-1 (Homo sapiens) (P23443 whole entry, looked up): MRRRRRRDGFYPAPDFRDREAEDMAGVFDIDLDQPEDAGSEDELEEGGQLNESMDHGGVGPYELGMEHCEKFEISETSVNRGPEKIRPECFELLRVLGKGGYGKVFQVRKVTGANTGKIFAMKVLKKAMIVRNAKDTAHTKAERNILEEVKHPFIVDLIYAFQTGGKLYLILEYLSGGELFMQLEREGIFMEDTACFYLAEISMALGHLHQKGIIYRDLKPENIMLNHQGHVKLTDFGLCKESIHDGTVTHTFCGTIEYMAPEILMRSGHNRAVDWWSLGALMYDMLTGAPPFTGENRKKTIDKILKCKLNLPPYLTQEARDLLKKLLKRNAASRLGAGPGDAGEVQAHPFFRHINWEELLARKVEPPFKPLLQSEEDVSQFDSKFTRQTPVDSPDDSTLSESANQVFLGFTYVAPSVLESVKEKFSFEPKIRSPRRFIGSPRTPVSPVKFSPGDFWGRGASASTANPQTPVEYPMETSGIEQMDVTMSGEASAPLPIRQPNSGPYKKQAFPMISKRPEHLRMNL

COc1cc(-c2cn([C@H]3CCc4ccccc4N(CC(F)(F)F)C3=O)nn2)ccc1-n1ccc(C)n1
residual activity [1]: 65% | residual activity [2]: 100% | residual activity [3]: 100% | residual activity [4]: 100% | residual activity [5]: 100% | residual activity [6]: 81% | residual activity [7]: 100% | residual activity [8]: 100% | residual activity [9]: 53% | residual activity [10]: 100% | residual activity [11]: 100% | residual activity [12]: 100% | residual activity [13]: 100% | residual activity [14]: 100% | residual activity [15]: 100% | residual activity [16]: 92% | residual activity [17]: 100% | residual activity [18]: 100% | residual activity [19]: 90% | residual activity [20]: 85% | residual activity [21]: 100% | residual activity [22]: 100% | residual activity [23]: 91% | residual activity [24]: 34% | residual activity [25]: 100% | residual activity [26]: 100% | residual activity [27]: 100% | residual activity [28]: 100% | residual activity [29]: 91% | residual activity [30]: 88% | residual activity [31]: 68% | residual activity [32]: 84% | residual activity [33]: 100% | residual activity [34]: 100% | residual activity [35]: 97% | residual activity [36]: 100% | residual activity [37]: 88% | residual activity [38]: 100% | residual activity [39]: 100% | residual activity [40]: 98% | residual activity [41]: 100% | residual activity [42]: 84% | inhibition [43]: 3.62% | inhibition [44]: -6.73%

COc1cc(-c2cn([C@H]3CCc4c(F)cccc4N(CC(F)(F)F)C3=O)nn2)ccc1-n1cnc(C)c1
residual activity [1]: 79% | residual activity [2]: 100% | residual activity [3]: 100% | residual activity [4]: 100% | residual activity [5]: 100% | residual activity [6]: 92% | residual activity [7]: 100% | residual activity [8]: 100% | residual activity [9]: 88% | residual activity [10]: 100% | residual activity [11]: 100% | residual activity [12]: 100% | residual activity [13]: 100% | residual activity [14]: 100% | residual activity [15]: 100% | residual activity [16]: 100% | residual activity [17]: 100% | residual activity [18]: 100% | residual activity [19]: 100% | residual activity [20]: 89% | residual activity [21]: 100% | residual activity [22]: 100% | residual activity [23]: 100% | residual activity [24]: 100% | residual activity [25]: 100% | residual activity [26]: 100% | residual activity [27]: 100% | residual activity [28]: 100% | residual activity [29]: 100% | residual activity [30]: 100% | residual activity [31]: 75% | residual activity [32]: 70% | residual activity [33]: 90% | residual activity [34]: 100% | residual activity [35]: 100% | residual activity [36]: 100% | residual activity [37]: 100% | residual activity [38]: 93% | residual activity [39]: 100% | residual activity [40]: 95% | residual activity [41]: 100% | residual activity [42]: 100% | inhibition [43]: 5.87% | inhibition [44]: 22.6%
